Source: ChEMBL document CHEMBL1201862, “PubChem BioAssay data set” (2004)
One block for each compound: values may come before it. Activity calls are given as the source filed them.

What was measured:
[1] = target: T1, Rac GTPase-activating protein 1 (Homo sapiens, UniProt Q9H0H5); assay: MgcRacGAP GTPase-activating activity inhibitors, confirmation, biochemical, ADP Hunter fluorescence, primary and confirmatory (AID 624330); assay type: functional
T1 sequence (Q9H0H5 whole entry): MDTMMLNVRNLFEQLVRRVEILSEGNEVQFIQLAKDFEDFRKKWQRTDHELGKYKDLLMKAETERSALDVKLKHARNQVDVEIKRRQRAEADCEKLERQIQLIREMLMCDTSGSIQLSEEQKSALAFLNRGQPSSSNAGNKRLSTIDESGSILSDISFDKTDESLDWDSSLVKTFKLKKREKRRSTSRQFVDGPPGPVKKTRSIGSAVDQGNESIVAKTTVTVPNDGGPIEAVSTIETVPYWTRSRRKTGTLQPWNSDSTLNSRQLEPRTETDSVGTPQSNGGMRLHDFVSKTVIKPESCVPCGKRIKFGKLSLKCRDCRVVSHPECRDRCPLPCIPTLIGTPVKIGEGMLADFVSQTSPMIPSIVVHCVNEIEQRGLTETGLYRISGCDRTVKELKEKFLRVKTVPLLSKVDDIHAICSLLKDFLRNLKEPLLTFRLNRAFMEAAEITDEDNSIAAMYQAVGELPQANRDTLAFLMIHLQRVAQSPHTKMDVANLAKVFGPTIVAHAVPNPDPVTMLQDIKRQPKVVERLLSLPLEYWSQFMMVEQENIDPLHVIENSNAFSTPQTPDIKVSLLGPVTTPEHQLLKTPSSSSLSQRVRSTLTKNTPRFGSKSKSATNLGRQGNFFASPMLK

[2] = target: DNA dC->dU-editing enzyme APOBEC-3A (Homo sapiens, UniProt P31941); assay: APOBEC3A DNA deaminase inhibitors, dose response, biochemical (AID 504722); assay type: functional
Chain of DNA dC->dU-editing enzyme APOBEC-3A (P31941 whole entry): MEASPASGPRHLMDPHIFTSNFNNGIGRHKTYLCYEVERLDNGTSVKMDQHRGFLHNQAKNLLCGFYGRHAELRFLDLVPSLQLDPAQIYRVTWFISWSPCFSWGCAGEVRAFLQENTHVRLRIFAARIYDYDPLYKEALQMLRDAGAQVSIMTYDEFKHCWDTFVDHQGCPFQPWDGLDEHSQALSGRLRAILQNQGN

[3] = target: DNA dC->dU-editing enzyme APOBEC-3G (Homo sapiens, UniProt Q9HC16); assay: Dose Response confirmation of small molecule APOBEC3G DNA Deaminase Inhibitors via a fluorescence-based single-stranded DNA deaminase assay. [Related pubchem assays (depositor defined):AID493012, AID493028]; assay type: functional
CAAX prenyl protease 2 = CAAX prenyl protease 2 (Saccharomyces cerevisiae S288c, UniProt Q03530); assay type: biochemical
Chain of CAAX prenyl protease 2 (Q03530 whole entry): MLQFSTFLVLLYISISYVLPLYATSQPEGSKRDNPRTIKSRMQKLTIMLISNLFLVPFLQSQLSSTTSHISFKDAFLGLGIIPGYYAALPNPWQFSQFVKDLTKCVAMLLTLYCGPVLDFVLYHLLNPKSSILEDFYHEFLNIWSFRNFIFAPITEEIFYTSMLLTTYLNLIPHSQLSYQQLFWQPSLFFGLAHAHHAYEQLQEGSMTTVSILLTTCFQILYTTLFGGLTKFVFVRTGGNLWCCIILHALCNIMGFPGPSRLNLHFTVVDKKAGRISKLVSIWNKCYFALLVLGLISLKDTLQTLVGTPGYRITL

[4] = target: G-protein coupled receptor 55 (Homo sapiens, UniProt Q9Y2T6); assay: SAR analysis of selective Agonists of GPR55 using an Image-Based Assay - Set 2. [Related pubchem assays (depositor defined):AID1961, AID1965]; assay type: functional
Cannabinoid receptor 1 [5] = target: T2, Cannabinoid receptor 1 (Homo sapiens, UniProt P21554); assay: SAR analysis of antagonists of the Cannabinoid Receptor 1 using an Image-Based Assay - Set 3. [Related pubchem assays (depositor defined):AID1961, AID1965]; assay type: functional
T2 sequence (P21554 whole entry): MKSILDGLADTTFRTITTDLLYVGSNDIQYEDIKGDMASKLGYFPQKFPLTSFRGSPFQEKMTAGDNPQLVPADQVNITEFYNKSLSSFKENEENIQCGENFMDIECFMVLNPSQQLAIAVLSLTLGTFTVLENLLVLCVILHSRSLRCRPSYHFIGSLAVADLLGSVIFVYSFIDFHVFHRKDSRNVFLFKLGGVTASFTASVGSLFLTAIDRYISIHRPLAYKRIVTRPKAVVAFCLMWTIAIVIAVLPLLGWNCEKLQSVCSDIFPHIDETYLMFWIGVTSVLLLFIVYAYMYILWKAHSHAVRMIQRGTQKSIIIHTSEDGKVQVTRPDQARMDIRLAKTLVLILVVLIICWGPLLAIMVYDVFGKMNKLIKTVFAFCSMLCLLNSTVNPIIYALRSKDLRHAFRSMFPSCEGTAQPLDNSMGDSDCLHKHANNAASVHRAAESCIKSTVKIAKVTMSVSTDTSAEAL

[6] = target: T3, G-protein coupled receptor 35 (Homo sapiens, UniProt Q9HC97); assay: SAR analysis of Agonists of the GPR35 Receptor using an Image-Based Assay - Set 3. [Related pubchem assays (depositor defined):AID1961, AID1965]; assay type: functional
T3 sequence (Q9HC97 whole entry): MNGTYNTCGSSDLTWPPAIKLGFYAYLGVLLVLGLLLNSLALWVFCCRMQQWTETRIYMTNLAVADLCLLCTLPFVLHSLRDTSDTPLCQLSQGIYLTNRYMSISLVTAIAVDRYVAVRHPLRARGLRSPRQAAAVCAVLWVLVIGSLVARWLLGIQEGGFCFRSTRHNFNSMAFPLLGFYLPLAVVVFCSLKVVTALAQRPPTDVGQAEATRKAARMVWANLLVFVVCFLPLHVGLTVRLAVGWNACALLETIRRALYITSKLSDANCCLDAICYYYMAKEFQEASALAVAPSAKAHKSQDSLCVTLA

[7] = target: T3, G-protein coupled receptor 35; assay: SAR analysis of Antagonists of the GPR35 Receptor using an Image-Based Assay - Set 4. [Related pubchem assays (depositor defined):[…]]; assay type: functional
Cannabinoid receptor 2 [8] = target: T4, Cannabinoid receptor 2 (Homo sapiens, UniProt P34972); assay: SAR analysis of agonists of the Cannabinoid Receptor 2 using an Image-Based Assay - Set 2. [Related pubchem assays (depositor defined):AID1961, AID1965]; assay type: functional
T4 sequence (P34972 whole entry): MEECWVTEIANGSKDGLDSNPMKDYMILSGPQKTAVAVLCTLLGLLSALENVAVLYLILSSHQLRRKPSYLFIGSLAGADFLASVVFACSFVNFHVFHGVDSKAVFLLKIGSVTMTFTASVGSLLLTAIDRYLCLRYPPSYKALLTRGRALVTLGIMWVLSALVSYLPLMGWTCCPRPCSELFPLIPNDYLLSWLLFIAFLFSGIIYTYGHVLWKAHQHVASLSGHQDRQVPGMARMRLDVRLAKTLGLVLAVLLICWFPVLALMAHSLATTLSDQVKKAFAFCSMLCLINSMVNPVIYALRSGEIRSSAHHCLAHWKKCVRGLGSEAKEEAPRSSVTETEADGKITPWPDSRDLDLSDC

Cannabinoid receptor 1 [9] = target: T2, Cannabinoid receptor 1; assay: SAR analysis of agonists of the Cannabinoid Receptor 1 using an Image-Based Assay - Set 3. [Related pubchem assays (depositor defined):AID1961, AID1965]; assay type: functional
Cannabinoid receptor 2 [10] = target: T4, Cannabinoid receptor 2; assay: SAR analysis of antagonists of the Cannabinoid Receptor 2 using an Image-Based Assay - Set 2. [Related pubchem assays (depositor defined):AID1961, AID1965]; assay type: functional
[11] = target: Induced myeloid leukemia cell differentiation protein Mcl-1 (Homo sapiens, UniProt Q07820); assay type: functional
Chain of Induced myeloid leukemia cell differentiation protein Mcl-1 (Q07820 whole entry): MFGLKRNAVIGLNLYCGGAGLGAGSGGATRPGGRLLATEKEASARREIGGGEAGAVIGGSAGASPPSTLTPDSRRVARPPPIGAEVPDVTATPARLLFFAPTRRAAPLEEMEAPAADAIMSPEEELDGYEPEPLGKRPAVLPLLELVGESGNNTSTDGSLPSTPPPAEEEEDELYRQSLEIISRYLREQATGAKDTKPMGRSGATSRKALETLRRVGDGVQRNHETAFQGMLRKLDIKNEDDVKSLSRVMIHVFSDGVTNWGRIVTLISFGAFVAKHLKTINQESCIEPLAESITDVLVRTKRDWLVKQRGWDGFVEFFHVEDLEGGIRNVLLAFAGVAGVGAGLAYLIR

Genome polyprotein = Genome polyprotein (dengue virus type 2, UniProt P29990); assay: Dengue-2 NS5 methyltransferase inhibitors, primary screen, biochemical, confirmation dose response (AID 588689); assay type: functional
[12] = target: T5, Polyadenylate-binding protein 1 (Homo sapiens, UniProt P11940); assay: PABP1 MLLE–PAM2 interaction inhibitors, dose response, miRNA deadenylation inhibitor project, biochemical, fluorescence polarization, Cy5-PAM2 peptide, secondary (AID 602260); assay type: functional; conditions: read-out: IC50_Mean
T5 sequence (P11940 whole entry): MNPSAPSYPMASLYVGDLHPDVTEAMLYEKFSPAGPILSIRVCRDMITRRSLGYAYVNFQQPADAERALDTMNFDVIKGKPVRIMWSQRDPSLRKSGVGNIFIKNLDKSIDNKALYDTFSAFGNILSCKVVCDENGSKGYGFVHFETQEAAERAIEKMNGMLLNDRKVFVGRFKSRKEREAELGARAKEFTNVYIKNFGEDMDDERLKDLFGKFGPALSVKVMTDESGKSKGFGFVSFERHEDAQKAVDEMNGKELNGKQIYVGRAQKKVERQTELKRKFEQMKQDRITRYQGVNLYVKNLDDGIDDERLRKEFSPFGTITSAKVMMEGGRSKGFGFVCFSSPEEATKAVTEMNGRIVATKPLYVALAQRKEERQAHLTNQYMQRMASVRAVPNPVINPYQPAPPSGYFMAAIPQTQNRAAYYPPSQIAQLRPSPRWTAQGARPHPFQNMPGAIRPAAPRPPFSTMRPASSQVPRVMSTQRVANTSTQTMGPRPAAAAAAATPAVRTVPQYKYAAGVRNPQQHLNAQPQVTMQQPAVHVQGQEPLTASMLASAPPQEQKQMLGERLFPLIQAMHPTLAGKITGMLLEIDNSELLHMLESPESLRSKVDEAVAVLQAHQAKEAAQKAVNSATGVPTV

[13] = target: T6, Tyrosine-protein phosphatase non-receptor type 7 (Homo sapiens, UniProt P35236); assay: redox-dependent HePTP inhibition, mechanism study, biochemical, fluorescence (AID 2068); assay type: functional
T6 sequence (P35236 whole entry): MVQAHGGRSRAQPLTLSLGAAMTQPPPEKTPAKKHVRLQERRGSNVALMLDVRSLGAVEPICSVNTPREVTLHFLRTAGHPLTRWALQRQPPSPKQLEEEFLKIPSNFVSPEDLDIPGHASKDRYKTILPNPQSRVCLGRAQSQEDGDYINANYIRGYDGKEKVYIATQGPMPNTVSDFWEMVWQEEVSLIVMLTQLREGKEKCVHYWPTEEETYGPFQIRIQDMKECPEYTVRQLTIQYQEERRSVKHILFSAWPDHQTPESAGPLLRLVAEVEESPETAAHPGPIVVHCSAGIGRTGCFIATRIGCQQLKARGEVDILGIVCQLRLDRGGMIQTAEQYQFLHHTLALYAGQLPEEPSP

[14] = target: T5, Polyadenylate-binding protein 1; assay: PABP1 MLLE–PAM2 binding inhibitor potency, dose response, biochemical, fluorescence polarization, FITC-PAM2 peptide (AID 602259); assay type: functional; conditions: read-out: IC50_Mean
[15] = target: T7, Small ubiquitin-related modifier 1 (Homo sapiens, UniProt P63165); assay: inhibitors of SUMO1 peptide binding, dose response, biochemical, fluorescence polarization, uHTS hits (AID 624382); assay type: functional; conditions: read-out: IC50_Mean
T7 sequence (P63165 whole entry): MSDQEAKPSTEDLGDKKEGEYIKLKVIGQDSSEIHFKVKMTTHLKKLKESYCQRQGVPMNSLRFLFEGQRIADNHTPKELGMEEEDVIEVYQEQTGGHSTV

[16] = target: T8, Small ubiquitin-related modifier 2 (Homo sapiens, UniProt P61956); assay: inhibitors of SUMO2 protein-protein interaction, dose response, selectivity assay for SUMO1 interaction inhibitor project, biochemical, FRET, human SUMO2, uHTS hits (AID 624384); assay type: functional; conditions: read-out: IC50_Mean
T8 sequence (P61956 whole entry): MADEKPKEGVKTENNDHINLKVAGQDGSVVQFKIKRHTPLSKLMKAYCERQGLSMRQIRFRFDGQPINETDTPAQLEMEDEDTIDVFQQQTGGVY

[17] = target: T8, Small ubiquitin-related modifier 2; assay: SUMO2–SIM peptide binding inhibitors, dose response, selectivity assay for SUMO1 interaction inhibitor project, biochemical, fluorescence polarization, uHTS hits (AID 624385); assay type: functional; conditions: read-out: IC50_Mean
[18] = target: Eukaryotic translation initiation factor 4E (Mus musculus, UniProt P63073); assay: eIF4E–eIF4G protein interaction inhibitors, dose response, biochemical, TR-FRET (AID 855); assay type: functional;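 note: potency for disrupting eIF4E binding to eIF4GI seen as loss of FRET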
SUMO-activating enzyme [19] = target: T9, SUMO-activating enzyme (Homo sapiens, UniProt Q9UBT2); assay: SUMOylation inhibitor hit validation, confirmation, SUMOylation inhibitor project, biochemical, AlphaScreen (AID 2018); assay type: functional
T9 sequence (Q9UBE0 whole entry): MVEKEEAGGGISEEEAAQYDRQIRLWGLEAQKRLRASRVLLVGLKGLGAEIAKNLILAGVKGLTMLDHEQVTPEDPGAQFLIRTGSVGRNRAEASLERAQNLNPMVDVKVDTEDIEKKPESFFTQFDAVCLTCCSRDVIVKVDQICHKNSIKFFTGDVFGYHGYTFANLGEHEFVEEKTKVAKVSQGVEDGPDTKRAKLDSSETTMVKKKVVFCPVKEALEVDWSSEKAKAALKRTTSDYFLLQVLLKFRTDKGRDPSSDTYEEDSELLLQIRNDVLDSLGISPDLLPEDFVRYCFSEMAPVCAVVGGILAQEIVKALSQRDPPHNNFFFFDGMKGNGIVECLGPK
T9 sequence (Q9UBT2 whole entry): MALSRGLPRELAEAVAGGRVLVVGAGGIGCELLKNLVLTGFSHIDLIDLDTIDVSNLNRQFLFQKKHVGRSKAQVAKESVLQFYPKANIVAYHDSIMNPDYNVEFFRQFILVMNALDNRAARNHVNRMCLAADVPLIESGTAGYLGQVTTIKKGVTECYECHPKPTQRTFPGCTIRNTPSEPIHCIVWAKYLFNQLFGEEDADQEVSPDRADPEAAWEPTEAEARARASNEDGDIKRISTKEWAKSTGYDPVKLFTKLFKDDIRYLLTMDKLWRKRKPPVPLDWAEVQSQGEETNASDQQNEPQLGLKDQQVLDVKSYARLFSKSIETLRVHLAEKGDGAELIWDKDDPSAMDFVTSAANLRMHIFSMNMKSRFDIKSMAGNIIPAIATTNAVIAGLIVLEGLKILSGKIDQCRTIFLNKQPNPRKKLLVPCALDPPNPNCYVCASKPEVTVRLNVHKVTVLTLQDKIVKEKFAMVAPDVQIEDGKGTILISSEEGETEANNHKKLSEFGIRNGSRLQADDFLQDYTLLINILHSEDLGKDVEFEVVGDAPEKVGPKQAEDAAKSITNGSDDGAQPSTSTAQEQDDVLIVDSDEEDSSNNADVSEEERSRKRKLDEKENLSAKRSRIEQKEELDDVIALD

[20] = target: T7, Small ubiquitin-related modifier 1; assay: inhibitors of SUMO1 partner interactions, dose response, biochemical, FRET (AID 624383); assay type: functional; conditions: read-out: IC50_Mean
[21] = target: Envelope glycoprotein gp160 (Human immunodeficiency virus 1, UniProt Q6QLK5); assay: inhibitors of HIV fusion peptide binding, primary screen, biochemical, uHTS, fluorescence dequenching (AID 1986)
SUMO-activating enzyme [22] = target: T9, SUMO-activating enzyme; assay: inhibitors of in vitro SUMOylation cascade, primary screen, biochemical, HTRF, uHTS (AID 2006); assay type: protein-complex assay
Phosphomannomutase 2 = Phosphomannomutase 2 (Homo sapiens, UniProt O15305); assay: Counter screen SAR assay for PMM2 inhibitors via a fluorescence intensity assay. [Related pubchem assays (depositor defined):AID1545, AID1574]
Chain of Phosphomannomutase 2 (O15305 whole entry): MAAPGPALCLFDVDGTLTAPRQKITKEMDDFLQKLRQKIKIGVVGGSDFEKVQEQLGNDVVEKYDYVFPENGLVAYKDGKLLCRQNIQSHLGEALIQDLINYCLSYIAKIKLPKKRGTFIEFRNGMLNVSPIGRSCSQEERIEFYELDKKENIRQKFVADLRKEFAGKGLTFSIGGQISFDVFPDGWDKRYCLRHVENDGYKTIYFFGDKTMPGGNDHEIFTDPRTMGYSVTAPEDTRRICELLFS

[23] = target: Diphosphomevalonate decarboxylase (Streptococcus pneumoniae serotype 2 (strain D39 / NCTC 7466), UniProt Q9FD53); assay: S. pneumoniae DPM-DC inhibition retest, confirmation, biochemical, cuvette format, coupled NADH fluorescence (AID 1028); assay type: functional
Chain of Diphosphomevalonate decarboxylase (Q9FD53 whole entry): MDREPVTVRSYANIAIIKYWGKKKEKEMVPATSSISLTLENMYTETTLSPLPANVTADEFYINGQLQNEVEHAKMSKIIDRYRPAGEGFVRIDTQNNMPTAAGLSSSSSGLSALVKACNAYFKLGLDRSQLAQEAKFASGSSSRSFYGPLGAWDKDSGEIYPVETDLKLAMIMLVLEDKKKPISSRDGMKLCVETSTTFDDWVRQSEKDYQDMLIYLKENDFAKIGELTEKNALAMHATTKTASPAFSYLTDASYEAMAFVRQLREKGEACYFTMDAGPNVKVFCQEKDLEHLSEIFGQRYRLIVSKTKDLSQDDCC

[24] = target: T10, Alkaline phosphatase, tissue-nonspecific isozyme (Homo sapiens, UniProt P05186); assay: human TNAP enzyme inhibitors, SAR follow-up, biochemical, luminescent, dose response (AID 1056)
T10 sequence (P05186 whole entry): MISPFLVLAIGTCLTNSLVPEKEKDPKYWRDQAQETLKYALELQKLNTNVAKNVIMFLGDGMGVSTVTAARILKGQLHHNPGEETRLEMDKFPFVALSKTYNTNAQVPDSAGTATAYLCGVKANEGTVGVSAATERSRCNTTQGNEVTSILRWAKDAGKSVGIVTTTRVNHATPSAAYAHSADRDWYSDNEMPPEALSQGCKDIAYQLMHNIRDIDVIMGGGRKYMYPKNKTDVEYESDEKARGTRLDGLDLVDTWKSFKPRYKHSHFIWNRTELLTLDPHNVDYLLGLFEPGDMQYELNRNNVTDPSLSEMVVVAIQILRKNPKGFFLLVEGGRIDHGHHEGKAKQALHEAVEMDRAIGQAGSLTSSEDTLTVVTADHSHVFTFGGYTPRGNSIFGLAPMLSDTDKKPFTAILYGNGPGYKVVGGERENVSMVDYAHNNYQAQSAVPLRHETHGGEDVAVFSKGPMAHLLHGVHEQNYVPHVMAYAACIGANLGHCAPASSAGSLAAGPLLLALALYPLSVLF

[25] = target: Phosphoethanolamine/phosphocholine phosphatase (Homo sapiens, UniProt Q8TCT1); assay: SAR assay for compounds that inhibit PHOSPHO1. [Related pubchem assays (depositor defined):AID1545, AID1565, AID1574]
Chain of Phosphoethanolamine/phosphocholine phosphatase (Q8TCT1 whole entry): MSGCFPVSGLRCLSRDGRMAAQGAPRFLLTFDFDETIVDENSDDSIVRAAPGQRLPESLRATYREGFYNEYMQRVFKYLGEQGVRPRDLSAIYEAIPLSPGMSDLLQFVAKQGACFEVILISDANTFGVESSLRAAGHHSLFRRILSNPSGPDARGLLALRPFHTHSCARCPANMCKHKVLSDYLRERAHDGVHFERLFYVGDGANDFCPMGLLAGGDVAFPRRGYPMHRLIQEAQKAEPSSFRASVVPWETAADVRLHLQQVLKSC

Structure (SMILES): CCOCCCn1c(=O)c2ccccc2n2c(S)nnc12
IC50 [1]: 21.9 µM (active)
IC50 [2]: > 100 µM (inactive)
IC50 [3]: 5.54 µM (active)

Structure (SMILES): O=C(O)c1cccc2c1NC(c1cccc([N+](=O)[O-])c1)C1CC(Sc3ccccc3[N+](=O)[O-])C(Cl)C21 (centres undefined)
IC50 [15]: 6.45 µM (active)
IC50 [11]: 3.05 µM (active)
IC50 [16]: 6.16 µM (active)
IC50 [17]: 6.5 µM (active)
IC50 [18]: 50 µM (inactive)
IC50 (SUMO-activating enzyme [19]): 2.43 µM (active)
IC50 [20]: 36.6 µM (inactive)
IC50 [21]: 12.5 µM (active)
IC50 (SUMO-activating enzyme [22]): 13.3 µM (active)

Structure (SMILES): CN(C)C(=O)c1cccc(-n2sc3ccccc3c2=O)c1
IC50 (Phosphomannomutase 2): 76.4 µM (active)
IC50 [23]: 24.4 µM (active)
IC50 [24]: > 100 µM (inactive)
IC50 [25]: 0.139 µM (active)

The remaining lines, values ahead:

AC50 (CAAX prenyl protease 2): 6.98 µM (active)
Structure (SMILES): CCN(CC)CCN(C(=O)c1cc2ccccc2cc1OC)c1nc2ccc(F)cc2s1

EC50 [4]: > 32 µM (inactive)
IC50 (Cannabinoid receptor 1 [5]): > 32 µM (inactive)
EC50 [6]: > 32 µM (inactive)
IC50 [7]: > 32 µM (inactive)
EC50 (Cannabinoid receptor 2 [8]): > 32 µM (inactive)
EC50 (Cannabinoid receptor 1 [9]): > 32 µM (inactive)
IC50 (Cannabinoid receptor 2 [10]): > 32 µM (inactive)
Structure (SMILES): Cc1cccc(N2CCN(C(=O)c3cccc(S(=O)(=O)N4CCOCC4)c3)CC2)c1C

IC50 [11]: 3.09 µM (active)
IC50 (Genome polyprotein): 73.9 µM (active)
IC50 [12]: > 66 µM (inactive)
IC50 [13]: 2.79 µM (active)
IC50 [14]: > 66 µM (inactive)
Structure (SMILES): COc1ccc2nc(-c3ccco3)c(-c3ccco3)nc2c1
